Measurements: US9216980B2, “Methods of use of diazacarbazoles for treating cancer” (Genentech, Inc., priority 2008, dated 2015)

The molecules below were run on HT-29 (assay: Cellular assay (checkpoint abrogation), phospho-Histone H3). Conditions: Homo sapiens; HT-29 cells, 20 nM SN-38 for 16 h, then 300 nM nocodazole plus compound for 24 h; phospho-Histone H3 levels; read-out: EC50 in the assay described in EXAMPLE ii.
Type: cell-based
Method: Compounds are tested in a cellular assay using the human colorectal adenocarcinoma derived cell line HT-29 (ATCC HTB-38).
The cell line is maintained in DMEM/F12 (1:1) media (Invitrogen Gibco, #31331) supplemented with 10% FCS at 37° C. in a 5% CO2 humidified incubator.
Cells are seeded in 96-well plates at 30,000 cells/well and after 24 h they are exposed to 20 nM SN-38 in 0.4% DMSO. One column of 8 wells on each plate was used to generate a maximum signal control. These cells are treated with 0.4% DMSO without SN-38. Cells are grown for a further 16 h, then the media containing DMSO plus or minus SN-38 is removed and replaced with media containing 300 nM nocodazole alone (to determine baseline) or in combination with ten concentrations of chk1 inhibitor (final DMSO concentration is 0.4%). Cells are grown for a further 24 h. The media is removed and replaced with 50 μl lysis buffer containing protease inhibitors and phosphatase inhibitors. This buffer contains detergent to bring about cellular disruption. […] Following the transfer of lysate to the MSD plate, Histone H3 in the lysate is captured on the coated antibody by incubation at room temperature for 2 h. Following the capture step the plate is washed and then incubated with an antibody to phosphorylated Histone H3 which is conjugated with a Sulfo-Tag. This tag gives a signal when in proximity to the electrode on the base of the MSD plate. Binding the tagged antibody to the captured protein allow detection on a MSD reader.
EC50 values are calculated using the XLfit software package (version 2.0.5) or Graphpad Prism, (version 3.03) fitting a sigmoidal curve with a variable slope.

EC50, < 10 µM:
CN1CCC(c2ccc(-c3cnc4[nH]c5cnc(C#N)cc5c4c3)cc2)CC1 [Example 1, 3-[4-(1-Methyl-piperidin-4-yl)-phenyl]-9H-dipyrido[2,3-b;4′,3′-d]pyrrole-6-carbonitrile]
Cn1ccc(-c2cnc3[nH]c4cnc(C#N)cc4c3c2)n1 [Example 80, 3-(1-Methyl-1H-pyrazol-3-yl)-9H-dipyrido[2,3-b;4′,3′-d]pyrrole-6-carbonitrile]
N#Cc1cc2c(cn1)[nH]c1ncc(C#CC3CCCNC3)cc12 (centres unmarked) [Example 119, 3-Piperidin-3-ylethynyl-9H-dipyrido[2,3-b;4′,3′-d]pyrrole-6-carbonitrile]
CN1CCN(c2ccc(-c3cnc4[nH]c5cnc(C#N)cc5c4c3)cc2)CC1 [Example 125, 3-[4-(4-Methyl-piperazin-1-yl)-phenyl]-9H-dipyrido[2,3-b;4′,3′-d]pyrrole-6-carbonitrile]
N#Cc1cc2c(cn1)[nH]c1ncc(-c3cnn(CCN4CCOCC4)c3)cc12 [Example 127, 3-[1-(2-Morpholin-4-yl-ethyl)-1H-pyrazol-4-yl]-9H-dipyrido[2,3-b;4′,3′-d]pyrrole-6-carbonitrile]
CC(C)Oc1ccc(-c2cnc3[nH]c4cnc(C#N)cc4c3c2)cc1 [Example 135, 3-(4-Isopropoxy-phenyl)-9H-dipyrido[2,3-b;4′,3′-d]pyrrole-6-carbonitrile]
CC(=O)Nc1cccc(-c2cnc3[nH]c4cnc(C#N)cc4c3c2)c1 [Example 138, N-[3-(6-Cyano-9H-dipyrido[2,3-b;4′,3′-d]pyrrol-3-yl)-phenyl]-acetamide]
N#Cc1cc2c(cn1)[nH]c1ncc(-c3ccc(CO)cc3)cc12 [Example 157, 3-(4-Hydroxymethyl-phenyl)-9H-dipyrido[2,3-b;4′,3′-d]pyrrole-6-carbonitrile]
N#Cc1cc2c(cn1)[nH]c1ncc(-c3cccs3)cc12 [Example 160, 3-Thiophen-2-yl-9H-dipyrido[2,3-b;4′,3′-d]pyrrole-6-carbonitrile]
N#Cc1cc2c(cn1)[nH]c1ncc(-c3cccc(N)c3)cc12 [Example 166, 3-(3-Amino-phenyl)-9H-dipyrido[2,3-b;4′,3′-d]pyrrole-6-carbonitrile]
COc1ccc(-c2cnc3[nH]c4cnc(C#N)cc4c3c2)cc1OC [Example 176, 9H-dipyrido[2,3-b;4′,3′-d]pyrrole-6-carbonitrile]
CC(=O)Nc1ccc(-c2cnc3[nH]c4cnc(C#N)cc4c3c2)cc1 [Example 186, N-[4-(6-Cyano-9H-dipyrido[2,3-b;4′,3′-d]pyrrol-3-yl)-phenyl]-acetamide]
CS(=O)(=O)c1cccc(-c2cnc3[nH]c4cnc(C#N)cc4c3c2)c1 [Example 188, 3-(3-Methanesulfonyl-phenyl)-9H-dipyrido[2,3-b;4′,3′-d]pyrrole-6-carbonitrile]
CN(C)S(=O)(=O)c1cccc(-c2cnc3[nH]c4cnc(C#N)cc4c3c2)c1 [Example 190, 3-(6-Cyano-9H-dipyrido[2,3-b;4′,3′-d]pyrrol-3-yl)-N,N-dimethyl-benzenesulfonamide]
N#Cc1cc2c(cn1)[nH]c1ncc(Cl)cc12 [Example 214, 3-Chloro-9H-dipyrido[2,3-b;4′,3′-d]pyrrole-6-carbonitrile]
c1cn(-c2cc3c(cn2)[nH]c2ncc(-c4ccc(CN5CCCCC5)cc4)cc23)cn1 [Example 366, 3-(4-Piperidin-1-ylmethyl-phenyl)-6-(1H-imidazol-1-yl)-9H-dipyrido[2,3-b;4′,3′-d]pyrrole]
Cn1nncc1-c1cc2c(cn1)[nH]c1ncc(-c3ccc(CN4CCCCC4)cc3)cc12 [Example 368, 6-(1-Methyl-1H-1,2,3-triazol-5-yl)-3-(4-piperidin-1-ylmethyl-phenyl)-9H-dipyrido[2,3-b;4′,3′-d]pyrrole]
